Assays:
[1] = test system: small flower umbrella sedge; assay: Test B flooded paddy test; format: in vivo, Cyperus difformis; settings: 1000 g ai/ha, scale 0 to 100 (0 no effect, 100 complete control)
Summary of the method: (§1)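 Plants grow to 1- to 4-leaf stage (2–18 cm) for postemergence spraying, or to 2-leaf stage for the paddy test. Formulated compound is applied. Greenhouse holding lasts 13–15 days. Response is scored visually relative to controls, 0 no effect to 100 complete control; a dash means no result.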

barnyardgrass [2] = assay: Test A pre-/postemergence herbicide test; format: in vivo, Echinochloa crus-galli
Summary of the method: (§2)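 Plants are held in greenhouse about ten days after treatment, then compared with untreated controls and scored 0 (no effect) to 100 (complete control). Preemergence dosing is a directed soil spray on sown sandy loam; postemergence dosing is spray to runoff at 2–10 cm height.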

ducksalad = assay: Test B flooded paddy test; format: in vivo, Heteranthera limosa; settings: 1000 g ai/ha, scale 0 to 100 (0 no effect, 100 complete control)
Summary of the method: as §1

rice [3] = assay: Test B pre-/postemergence herbicide test; format: in vivo, Oryza sativa; settings: preemergence
Summary of the method: (§3)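 Seeds were planted and treated preemergence with compounds formulated in a non-phytotoxic solvent mixture containing surfactant, while plants at the 1- to 4-leaf stage (2 to 18 cm) received postemergence sprays. Flooded paddy plants were grown to the 2-leaf stage. After 13 to 15 days in a greenhouse, injury was visually rated 0–100 against untreated controls.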

cocklebur = assay: Test B pre-/postemergence herbicide test; format: in vivo, Xanthium strumarium; settings: for Cocklebur plant response rating: postemergence
Summary of the method: (§4)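 Species tested were Echinochloa crus-galli, Ipomoea coccinea, Xanthium strumarium and Oryza sativa, treated both before emergence and at the 1- to 4-leaf stage; rice and barnyardgrass were also tested under flooding at 2 leaves. Greenhouse incubation lasted 13–15 days before visual 0–100 scoring.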

large crabgrass [4] = assay: Test A pre-/postemergence herbicide test; format: in vivo, Digitaria sanguinalis
Summary of the method: as §2

large crabgrass [5] = assay: Test B pre-/postemergence herbicide test; format: in vivo, Digitaria sanguinalis; settings: for Crabgrass, Large plant response rating: postemergence
Summary of the method: as §3

giant foxtail [6] = assay: Test B pre-/postemergence herbicide test; format: in vivo, Setaria faberi; settings: for Foxtail, Giant plant response rating: postemergence
Summary of the method: as §3

morningglory [7] = assay: Test B pre-/postemergence herbicide test; format: in vivo, Ipomoea coccinea; settings: for Morningglory plant response rating: postemergence
Summary of the method: as §4

corn = assay: Test B pre-/postemergence herbicide test; format: in vivo, Zea mays; settings: for Corn plant response rating: postemergence
Summary of the method: as §3

lambsquarters = assay: Test B pre-/postemergence herbicide test; format: in vivo, Chenopodium album; settings: for Lambsquarters plant response rating: postemergence
Summary of the method: as §3

rice [8] = assay: Test B flooded paddy test; format: in vivo, Oryza sativa; settings: 1000 g ai/ha, scale 0 to 100 (0 no effect, 100 complete control)
Summary of the method: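 Visual ratings, 0 (no effect) to 100 (complete control), made versus controls after 13–15 d greenhouse. Paddy plants treated at 2-leaf stage; postemergence plants at 1- to 4-leaf stage, 2–18 cm tall.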

Surinam grass = assay: Test B pre-/postemergence herbicide test; format: in vivo, Urochloa decumbens; settings: for Surinam Grass plant response rating: postemergence
Summary of the method: as §3

morningglory [9] = assay: Test A pre-/postemergence herbicide test; format: in vivo, Ipomoea spp.
Summary of the method: as §2

barnyardgrass [10] = assay: Test B flooded paddy test; format: in vivo, Echinochloa crus-galli; settings: 1000 g ai/ha, scale 0 to 100 (0 no effect, 100 complete control)
Summary of the method: as §1

redroot pigweed = assay: Test A pre-/postemergence herbicide test; format: in vivo, Amaranthus retroflexus
Summary of the method: as §2

blackgrass = assay: Test B postemergence herbicide test; format: in vivo, Alopecurus myosuroides; settings: postemergence
Summary of the method: as §1

pigweed = assay: Test B pre-/postemergence herbicide test; format: in vivo, Amaranthus retroflexus; settings: for Pigweed plant response rating: postemergence
Summary of the method: as §3

giant foxtail [11] = assay: Test A pre-/postemergence herbicide test; format: in vivo, Setaria faberi
Summary of the method: as §2

velvetleaf [12] = assay: Test B pre-/postemergence herbicide test; format: in vivo, Abutilon theophrasti; settings: for Velvetleaf plant response rating: postemergence
Summary of the method: as §3

wild oat = assay: Test B postemergence herbicide test; format: in vivo, Avena fatua; settings: postemergence
Summary of the method: (§5)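 Treated at 2-leaf (paddy) or 1–4-leaf, 2–18 cm (postemergence); greenhouse 13–15 d; visual score vs control, 0 none to 100 complete control; dash = not tested.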

wheat = assay: Test B postemergence herbicide test; format: in vivo, Triticum aestivum; set-up: key to Wheat plant response rating: 0 = no effect, 100 = complete control; settings: postemergence
Summary of the method: as §5

barnyardgrass [13] = assay: Test B pre-/postemergence herbicide test; format: in vivo, Echinochloa crus-galli; settings: for Barnyardgrass plant response rating: postemergence
Summary of the method: as §4

velvetleaf [14] = assay: Test A pre-/postemergence herbicide test; format: in vivo, Abutilon theophrasti
Summary of the method: as §2

[15] = Postemergence, 500 g ai/ha, 0 to 100 scale, 0 no effect, 100 complete control
[16] = Postemergence, 2000 g ai/ha, 0 to 100 scale, 0 no effect, 100 complete control
[17] = Preemergence, 2000 g ai/ha, visual rating, 0 to 100 scale (0 no effect, 100 complete control)
[18] = preemergence, 500 g ai/ha, visual injury, 0 to 100 scale (0 no effect, 100 complete control)
[19] = 125 g ai/ha, 0 is no effect, 100 is complete control, preemergence
[20] = 125 g ai/ha, visual rating, scale 0 (no effect) to 100 (complete control)
[21] = 500 g ai/ha, visual rating, 0 = no effect, 100 = complete control, preemergence
[22] = 500 g ai/ha, scale 0 to 100, 0 is no effect, 100 is complete control

## C#CCOC(=O)c1cccc(NC(=O)c2cc(C(C)(C)C)nn2C)n1 [Compound 317]
[1]
  Sedge, Umbrella plant response rating: 0
Barnyardgrass [2]; [15]
  Barnyardgrass plant response rating: 0
Barnyardgrass [2]; [16]
  Plant response rating, Barnyardgrass: 0
Barnyardgrass [2]; [17]
  Barnyardgrass plant response rating: 0
Barnyardgrass [2]; [18]
  Barnyardgrass plant response rating: 0
ducksalad
  Ducksalad plant response rating: 0
Rice [3]; 125 g ai/ha, 0 is no effect, 100 is complete control
  Plant response rating (0 to 100 scale), Rice: 0
Rice [3]; 500 g ai/ha, visual rating, 0 = no effect, 100 = complete control
  Plant response rating, Rice: 0
cocklebur; [19]
  Plant response rating (0 to 100 scale), Cocklebur: 0
cocklebur; [20]
  Cocklebur plant response rating: 0
cocklebur; [21]
  Plant response rating, Cocklebur: 0
cocklebur; [22]
  Cocklebur plant response rating: 0
Large crabgrass [4]; [15]
  Crabgrass, Large plant response rating: 10
Large crabgrass [4]; [16]
  Plant response rating, Crabgrass, Large: 10
Large crabgrass [4]; [17]
  Crabgrass, Large plant response rating: 10
Large crabgrass [4]; [18]
  Crabgrass, Large plant response rating: 0
Large crabgrass [5]; [19]
  Plant response rating (0 to 100 scale), Crabgrass, Large: 0
Large crabgrass [5]; [20]
  Crabgrass, Large plant response rating: 0
Large crabgrass [5]; [21]
  Plant response rating, Crabgrass, Large: 0
Large crabgrass [5]; [22]
  Crabgrass, Large plant response rating: 0
Giant foxtail [6]; [19]
  Plant response rating (0 to 100 scale), Foxtail, Giant: 0
Giant foxtail [6]; [20]
  Foxtail, Giant plant response rating: 0
Giant foxtail [6]; [21]
  Plant response rating, Foxtail, Giant: 0
Giant foxtail [6]; [22]
  Foxtail, Giant plant response rating: 0
Morningglory [7]; [19]
  Plant response rating (0 to 100 scale), Morningglory: 0
Morningglory [7]; [20]
  Morningglory plant response rating: 0
Morningglory [7]; [21]
  Plant response rating, Morningglory: 0
Morningglory [7]; [22]
  Morningglory plant response rating: 0
corn; [19]
  Plant response rating (0 to 100 scale), Corn: 0
corn; [20]
  Corn plant response rating: 0
corn; [21]
  Plant response rating, Corn: 0
corn; [22]
  Corn plant response rating: 0
lambsquarters; [19]
  Plant response rating (0 to 100 scale), Lambsquarters: 0
lambsquarters; [20]
  Lambsquarters plant response rating: 0
lambsquarters; [21]
  Plant response rating, Lambsquarters: 0
lambsquarters; [22]
  Lambsquarters plant response rating: 50
Rice [8]
  Rice plant response rating: 0
Surinam grass; [19]
  Plant response rating (0 to 100 scale), Surinam Grass: 0
Surinam grass; [20]
  Surinam Grass plant response rating: 0
Surinam grass; [21]
  Plant response rating, Surinam Grass: 0
Surinam grass; [22]
  Surinam Grass plant response rating: 0
Morningglory [9]; [15]
  Morningglory plant response rating: 0
Morningglory [9]; [16]
  Plant response rating, Morningglory: 0
Morningglory [9]; [17]
  Morningglory plant response rating: 0
Morningglory [9]; [18]
  Morningglory plant response rating: 0
Barnyardgrass [10]
  Barnyardgrass plant response rating: 0
Redroot pigweed; [15]
  Pigweed plant response rating: 0
Redroot pigweed; [16]
  Plant response rating, Pigweed: 10
Redroot pigweed; [17]
  Pigweed plant response rating: 30
Redroot pigweed; [18]
  Pigweed plant response rating: 20
blackgrass; [20]
  Blackgrass plant response rating: 0
blackgrass; [22]
  Blackgrass plant response rating: 0
pigweed; [19]
  Plant response rating (0 to 100 scale), Pigweed: 0
pigweed; [20]
  Pigweed plant response rating: 0
pigweed; [21]
  Plant response rating, Pigweed: 0
pigweed; [22]
  Pigweed plant response rating: 0
Giant foxtail [11]; [15]
  Foxtail, Giant plant response rating: 0
Giant foxtail [11]; [16]
  Plant response rating, Foxtail, Giant: 0
Giant foxtail [11]; [17]
  Foxtail, Giant plant response rating: 0
Giant foxtail [11]; [18]
  Foxtail, Giant plant response rating: 0
Velvetleaf [12]; [19]
  Plant response rating (0 to 100 scale), Velvetleaf: 0
Velvetleaf [12]; [20]
  Velvetleaf plant response rating: 0
Velvetleaf [12]; [21]
  Plant response rating, Velvetleaf: 0
Velvetleaf [12]; [22]
  Velvetleaf plant response rating: 0
Wild oat; [20]
  Oat, Wild plant response rating: 0
Wild oat; [22]
  Oat, Wild plant response rating: 0
wheat; [20]
  Wheat plant response rating: 0
wheat; [22]
  Wheat plant response rating: 0
Barnyardgrass [13]; [19]
  Plant response rating (0 to 100 scale), Barnyardgrass: 0
Barnyardgrass [13]; [20]
  Barnyardgrass plant response rating: 0
Barnyardgrass [13]; [21]
  Plant response rating, Barnyardgrass: 0
Barnyardgrass [13]; [22]
  Barnyardgrass plant response rating: 0
Velvetleaf [14]; [15]
  Velvetleaf plant response rating: 0
Velvetleaf [14]; [16]
  Plant response rating, Velvetleaf: 0
Velvetleaf [14]; [17]
  Velvetleaf plant response rating: 30
Velvetleaf [14]; [18]
  Velvetleaf plant response rating: 0
